# Values quoted from earlier work in patent US6365131B1, “Pharmaceutical dental formulation for topical application of metronidazole benzoate, chlorhexidine gluconate and local anesthetic” (priority 1997, dated 2002).
Compound,Time to peak effect (after the application to skin or mucosal surface),Onset of anesthesia (depending on the site of administration),Duration of action (in words)
"CCOC(=O)c1ccc(N)cc1 [Benzocaine, ethyl ester of p-Aminobenzoic acid]",≤ 1 min,,
CCN(CC)CC(=O)Nc1c(C)cccc1C [Lidocaine],,within a few minutes,intermediate duration of action
